Legend:
Experiment in all cases: relative viability (nuclei count vs DMSO), 5 days (fraction); higher = more cells survive
NCI-H1651 = test system: NCI-H1651
Procedure, shortened: (§1)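 Lung cancer cell lines were seeded in 1536-well plates and dosed by pin tool the next day, with either a single drug or a fixed anchor-drug dose combined with five library-drug doses (not always all listed) spaced in √10 steps. Five days later, one step fixed the cells and stained their nuclei (final 0.05% Triton X-100, 1% formaldehyde, 1 ug/ml Hoechst), and nuclei were counted on 4× images. Relative viability is the nuclei count in treated wells divided by the count in vehicle wells, and each value is the median of duplicate plates.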

NCI-H2023 = test system: NCI-H2023
Procedure, shortened: as §1

LCLC-97TM1 = test system: LCLC-97TM1
Procedure, shortened: as §1

BEN = test system: BEN
Procedure, shortened: as §1

NCI-H650 = test system: NCI-H650
Procedure, shortened: as §1

NCI-H1915 = test system: NCI-H1915
Procedure, shortened: as §1

A-427 = test system: A-427
Procedure, shortened: as §1

NCI-H596 = test system: NCI-H596
Procedure, shortened: as §1

NCI-H460 = test system: NCI-H460
Procedure, shortened: as §1

NCI-H1650 = test system: NCI-H1650
Procedure, shortened: as §1

PC-3 [JPC-3] = test system: PC-3 [JPC-3]
Procedure, shortened: as §1

NCI-H661 = test system: NCI-H661
Procedure, shortened: as §1

CAL-12T = test system: CAL-12T
Procedure, shortened: as §1

ABC-1 = test system: ABC-1
Procedure, shortened: as §1

NCI-H441 = test system: NCI-H441
Procedure, shortened: as §1

201T = test system: 201T
Procedure, shortened: as §1

H3255 = test system: H3255
Procedure, shortened: as §1

NCI-H727 = test system: NCI-H727
Procedure, shortened: as §1

LC-2-ad = test system: LC-2-ad
Procedure, shortened: as §1

NCI-H520 = test system: NCI-H520
Procedure, shortened: as §1

NCI-H2087 = test system: NCI-H2087
Procedure, shortened: as §1

Cc1sc2c(c1C)C(c1ccc(Cl)cc1)=N[C@@H](CC(=O)OC(C)(C)C)c1nnc(C)n1-2 [JQ1] + CC(C)C[C@H](NC(=O)[C@H](Cc1ccccc1)NC(=O)c1cnccn1)B(O)O [Bortezomib] (partner 0.002 µM)
relative viability (NCI-H1651; first compound 0.04 µM): 0.919
relative viability (NCI-H1651; first compound 0.1265 µM): 0.781
relative viability (NCI-H1651; first compound 0.4 µM): 0.842
relative viability (NCI-H1651; first compound 1.265 µM): 0.9
relative viability (NCI-H1651; first compound 4 µM): 0.635
relative viability (NCI-H2023; first compound 0.04 µM): 0.966
relative viability (NCI-H2023; first compound 0.1265 µM): 0.57
relative viability (NCI-H2023; first compound 0.4 µM): 0.437
relative viability (NCI-H2023; first compound 1.265 µM): 0.263
relative viability (NCI-H2023; first compound 4 µM): 0.193
relative viability (LCLC-97TM1; first compound 0.04 µM): 0.492
relative viability (LCLC-97TM1; first compound 0.1265 µM): 0.533
relative viability (LCLC-97TM1; first compound 0.4 µM): 0.336
relative viability (LCLC-97TM1; first compound 1.265 µM): 0.0995
relative viability (LCLC-97TM1; first compound 4 µM): 0.0548
relative viability (BEN; first compound 0.04 µM): 0.627
relative viability (BEN; first compound 0.1265 µM): 0.605
relative viability (BEN; first compound 0.4 µM): 0.463
relative viability (BEN; first compound 1.265 µM): 0.322
relative viability (BEN; first compound 4 µM): 0.221
relative viability (NCI-H650; first compound 0.04 µM): 0.742
relative viability (NCI-H650; first compound 0.1265 µM): 0.351
relative viability (NCI-H650; first compound 0.4 µM): 0.432
relative viability (NCI-H650; first compound 1.265 µM): 0.183
relative viability (NCI-H650; first compound 4 µM): 0.184
relative viability (NCI-H1915; first compound 0.04 µM): 1.02
relative viability (NCI-H1915; first compound 0.1265 µM): 0.706
relative viability (NCI-H1915; first compound 0.4 µM): 0.961
relative viability (NCI-H1915; first compound 1.265 µM): 0.678
relative viability (NCI-H1915; first compound 4 µM): 0.642
relative viability (A-427; first compound 0.04 µM): 0.969
relative viability (A-427; first compound 0.1265 µM): 1.04
relative viability (A-427; first compound 0.4 µM): 0.979
relative viability (A-427; first compound 1.265 µM): 0.682
relative viability (A-427; first compound 4 µM): 0.474
relative viability (NCI-H596; first compound 0.04 µM): 0.945
relative viability (NCI-H596; first compound 0.1265 µM): 0.781
relative viability (NCI-H596; first compound 0.4 µM): 0.955
relative viability (NCI-H596; first compound 1.265 µM): 0.673
relative viability (NCI-H596; first compound 4 µM): 0.344
relative viability (NCI-H460; first compound 0.04 µM): 1.05
relative viability (NCI-H460; first compound 0.1265 µM): 0.611
relative viability (NCI-H460; first compound 0.4 µM): 0.456
relative viability (NCI-H460; first compound 1.265 µM): 0.224
relative viability (NCI-H460; first compound 4 µM): 0.212
relative viability (NCI-H1650; first compound 0.04 µM): 0.177
relative viability (NCI-H1650; first compound 0.1265 µM): 0.191
relative viability (NCI-H1650; first compound 0.4 µM): 0.187
relative viability (NCI-H1650; first compound 1.265 µM): 0.175
relative viability (NCI-H1650; first compound 4 µM): 0.208
relative viability (PC-3 [JPC-3]; first compound 0.04 µM): 0.845
relative viability (PC-3 [JPC-3]; first compound 0.1265 µM): 0.81
relative viability (PC-3 [JPC-3]; first compound 0.4 µM): 0.977
relative viability (PC-3 [JPC-3]; first compound 1.265 µM): 0.675
relative viability (PC-3 [JPC-3]; first compound 4 µM): 0.352
relative viability (NCI-H661; first compound 0.04 µM): 0.783
relative viability (NCI-H661; first compound 0.1265 µM): 0.83
relative viability (NCI-H661; first compound 0.4 µM): 0.576
relative viability (NCI-H661; first compound 1.265 µM): 0.431
relative viability (NCI-H661; first compound 4 µM): 0.537
relative viability (CAL-12T; first compound 0.04 µM): 1.06
relative viability (CAL-12T; first compound 0.4 µM): 0.638
relative viability (CAL-12T; first compound 1.265 µM): 0.415
relative viability (CAL-12T; first compound 4 µM): 0.317
relative viability (ABC-1; first compound 0.04 µM): 0.306
relative viability (ABC-1; first compound 0.1265 µM): 0.233
relative viability (ABC-1; first compound 0.4 µM): 0.329
relative viability (ABC-1; first compound 1.265 µM): 0.332
relative viability (ABC-1; first compound 4 µM): 0.272
relative viability (NCI-H441; first compound 0.04 µM): 0.611
relative viability (NCI-H441; first compound 0.1265 µM): 0.363
relative viability (NCI-H441; first compound 0.4 µM): 0.443
relative viability (NCI-H441; first compound 1.265 µM): 0.189
relative viability (NCI-H441; first compound 4 µM): 0.174
relative viability (201T; first compound 0.04 µM): 1.14
relative viability (201T; first compound 0.1265 µM): 0.643
relative viability (201T; first compound 0.4 µM): 1.02
relative viability (201T; first compound 1.265 µM): 0.859
relative viability (201T; first compound 4 µM): 0.768
relative viability (H3255; first compound 0.04 µM): 0.628
relative viability (H3255; first compound 0.1265 µM): 0.553
relative viability (H3255; first compound 0.4 µM): 0.747
relative viability (H3255; first compound 1.265 µM): 0.306
relative viability (H3255; first compound 4 µM): 0.278
relative viability (NCI-H727; first compound 0.04 µM): 0.756
relative viability (NCI-H727; first compound 0.1265 µM): 1.01
relative viability (NCI-H727; first compound 0.4 µM): 0.588
relative viability (NCI-H727; first compound 1.265 µM): 0.38
relative viability (NCI-H727; first compound 4 µM): 0.395
relative viability (LC-2-ad; first compound 0.04 µM): 0.853
relative viability (LC-2-ad; first compound 0.1265 µM): 0.391
relative viability (LC-2-ad; first compound 0.4 µM): 0.787
relative viability (LC-2-ad; first compound 1.265 µM): 0.131
relative viability (LC-2-ad; first compound 4 µM): 0.109
relative viability (NCI-H520; first compound 0.04 µM): 0.527
relative viability (NCI-H520; first compound 0.1265 µM): 0.242
relative viability (NCI-H520; first compound 0.4 µM): 0.157
relative viability (NCI-H520; first compound 1.265 µM): 0.167
relative viability (NCI-H520; first compound 4 µM): 0.136
relative viability (NCI-H2087; first compound 0.04 µM): 0.832
relative viability (NCI-H2087; first compound 0.4 µM): 0.943
relative viability (NCI-H2087; first compound 1.265 µM): 0.553
relative viability (NCI-H2087; first compound 4 µM): 0.416

Source: the supplement of paper PMC10307832
